From patent US12221446B2 (Merck Patent GmbH, priority 2018, dated 2025)
Read-outs that look alike come from different tables or passages of the source.

How the values were obtained:
[1] = for Pyrazino-s-triazine derivative of 4α-hydroxy-5-methyl-THF (MeFox) (% abs.): 40° C./75% rh, major degradation product
Description: The content of 5-methyl-(6S)-tetrahydrofolic acid remaining in the sample was measured by HPLC at periodic intervals. The content of 5-methyl-(6S)-tetrahydrofolic acid remaining was also compared to the initial value at the time of preparation (% rel.). Additionally the content of the pyrazino-s-triazine derivative of 4α-hydroxy-5-methyl-THF (MeFox), a major degradation product, was measured by HPLC at periodic intervals and disclosed as absolute values (% w/w).

[2] = Water content / TG-FTIR analysis
Description: Thermogravimetric measurements were carried out with a Netzsch Thermo-Microbalance TG 209 coupled to a Bruker FTIR Spectrometer Vector 22 (sample pans with a pinhole, N2 atmosphere, heating rate 10 K/min).

[3] = Method: DVS measurements are typically performed with an SPS11-100n “Sorptions Prüfsystem” from ProUmid (formerly “Projekt Messtechnik”), August-Nagel-Str. 23, 89079 Ulm (Germany).
DVS measurements were performed with an SPS11-100n “Sorptions Prüfsystem” from ProUmid (formerly “Projekt Messtechnik”), August-Nagel-Str. 23, 89079 Ulm (Germany).

[4] = 25° C./60% rh; for Pyrazino-s-triazine derivative of 4α-hydroxy-5-methyl-THF (MeFox) (% w/w): major degradation product

Pyrazino-s-triazine derivative of 4α-hydroxy-5-methyl-THF (MeFox) (% abs.) ([1]; 0 months): 0.20 % abs.
Pyrazino-s-triazine derivative of 4α-hydroxy-5-methyl-THF (MeFox) (% abs.) ([1]; 3 months): 0.72 % abs.
Pyrazino-s-triazine derivative of 4α-hydroxy-5-methyl-THF (MeFox) (% abs.) ([1]; 6 months): 0.80 % abs.
Pyrazino-s-triazine derivative of 4α-hydroxy-5-methyl-THF (MeFox) (% abs.) ([1]; 9 months): 0.68 % abs.
content of MeFox ([1]; already before reaching 9 months (Table 7)): over 0.6%
water content (generally) ([2]; general statement): more than 10%
water content ([2]; measured on a sample): 12.4%
change of water content ([3]; relative humidity from 20 to 75% r.h.): more than 6%
change of water content (DVS) ([3]; within the tested range, 0 to 75% r.h.): more than 6%
Pyrazino-s-triazine derivative of 4α-hydroxy-5-methyl-THF (MeFox) (% w/w) ([4]; 0 months): 0.20 % w/w
Pyrazino-s-triazine derivative of 4α-hydroxy-5-methyl-THF (MeFox) (% w/w) ([4]; 3 months): 0.59 % w/w
Pyrazino-s-triazine derivative of 4α-hydroxy-5-methyl-THF (MeFox) (% w/w) ([4]; 6 months): 0.71 % w/w
Pyrazino-s-triazine derivative of 4α-hydroxy-5-methyl-THF (MeFox) (% w/w) ([4]; 9 months): 0.68 % w/w
content of MeFox ([4]; already before reaching 9 months): over 0.6%
SMILES: CN1c2c([nH]c(N)nc2=O)NC[C@@H]1CNc1ccc(C(=O)N[C@@H](CCC(=O)[O-])C(=O)[O-])cc1.[Ca+2]
